The target in this assay is T1, crosslinked smooth muscle actomyosin (chicken gizzard smooth muscle myosin subfragment-1 crosslinked to cardiac or skeletal actin) (Gallus gallus, UniProt P10587).
T1 construct: chicken gizzard smooth muscle myosin subfragment-1; from tissue; host or cells: chicken gizzard
Nature of the assay: Lead optimization pyruvate kinase/horseradish peroxidase/pyruvate oxidase-coupled ATPase assay (compound dose response). The assay is classed as biochemical. The note with it: read-out: IC50 Arithmetic Mean. The method, boiled down:
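The ATPase used chicken gizzard smooth muscle myosin S1 chemically crosslinked to cardiac or skeletal actin, titrated to a set hydrolysis rate. It was coupled via pyruvate kinase/pyruvate oxidase/HRP in 12 mM K-PIPES pH 7.00 (22 °C) with 0.15 mM ATP, 2 mM MgCl2, 100 mM KCl and 0.1 mM Amplex Red. Fluorescence was read at ex 480/em 615 nm, and IC50 came from a 4-parameter fit.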

The IC50 is the concentration at which inhibition is half-maximal. As for `CCc1ccc(NC(=O)N2CCN(C(=O)CN)C(C(=O)NCc3ccccc3Cl)C2)cc1` (centres unmarked) [(4-(2-aminoacetyl)-3-{N-[(2-chlorophenyl)methyl]carbamoyl}piperazinyl)-N-(4-ethylphenyl)carboxamide], the IC50 is 15200 nM.
The figure for `Cc1ccc(NC(=O)OCC2(C(=O)NCc3ccccc3Cl)CCOCC2)c(C)c1` [(4-{[N-(2,4-dimethylphenyl)carbamoyloxy]methyl}(2H-3,4,5,6-tetrahydropyran-4-yl))-N-[(2-chlorophenyl)methyl]carboxamide] is 1260 nM.
The figure for `O=C(Nc1ccccc1Cl)OCC1(C(=O)NCc2ccccc2Cl)CCOCC1` [(4-{[N-(2-chlorophenyl)carbamoyloxy]methyl}(2H-3,4,5,6-tetrahydropyran-4-yl))-N-[(2-chlorophenyl)methyl]carboxamide] is 17300 nM; for `Cc1ccc(NC(=O)OCC2(C(=O)NCc3ccccc3Cl)CCOCC2)cc1C` [(4-{[N-(3,4-dimethylphenyl)carbamoyloxy]methyl}(2H-3,4,5,6-tetrahydropyran-4-yl))-N-[(2-chlorophenyl)methyl]carboxamide] it is 2340 nM.
For `O=C(Nc1cc(Cl)cc(Cl)c1)OCC1(C(=O)NCc2ccccc2Cl)CCOCC1` [(4-{[N-(3,5-dichlorophenyl)carbamoyloxy]methyl}(2H-3,4,5,6-tetrahydropyran-4-yl))-N-[(2-chlorophenyl)methyl]carboxamide], the IC50 came out at 18300 nM.
For `Cc1c(Cl)cccc1NC(=O)OCC1(C(=O)NCc2ccccc2Cl)CCOCC1` [(4-{[N-(3-chloro-2-methylphenyl)carbamoyloxy]methyl}(2H-3,4,5,6-tetrahydropyran-4-yl))-N-[(2-chlorophenyl)methyl]carboxamide], the IC50 was 16200 nM.
The same measure for `Cc1ccc(NC(=O)OCC2(C(=O)NCc3ccccc3Cl)CCOCC2)cc1Cl` [(4-{[N-(3-chloro-4-methylphenyl)carbamoyloxy]methyl}(2H-3,4,5,6-tetrahydropyran-4-yl))-N-[(2-chlorophenyl)methyl]carboxamide]: 1960 nM; for `CC(=O)c1ccc(NC(=O)OCC2(C(=O)NCc3ccccc3Cl)CCOCC2)cc1` [(4-{[N-(4-acetylphenyl)carbamoyloxy]methyl}(2H-3,4,5,6-tetrahydropyran-4-yl))-N-[(2-chlorophenyl)methyl]carboxamide]: 4270 nM; for `CC(=O)c1ccc(NC(=O)OCC2(C(=O)NCc3ccccc3Cl)CCN(C(=O)CN)CC2)cc1` [(4-{[N-(4-acetylphenyl)carbamoyloxy]methyl}-1-(2-aminoacetyl)(4-piperidyl))-N-[(2-chlorophenyl)methyl]carboxamide]: 1190 nM.
The figure for `O=C(Nc1ccc(Cl)cc1)OCC1(C(=O)NCc2ccccc2Cl)CCOCC1` [(4-{[N-(4-chlorophenyl)carbamoyloxy]methyl}(2H-3,4,5,6-tetrahydropyran-4-yl))-N-[(2-chlorophenyl)methyl]carboxamide] is 2780 nM; for `CCc1ccc(NC(=O)N[C@H]2CCCC[C@@H]2C(=O)NCc2ccccc2Cl)cc1` [((1S,2S)-2-{[(4-ethylphenyl)amino]carbonylamino}cyclohexyl)-N-[(2-chlorophenyl)methyl]carboxamide] it is 16800 nM; for `CCc1ccc(NC(=O)OC[C@@H]2CCCN2C(=O)NCc2ccccc2Cl)cc1` [((2S)-2-{[N-(4-ethylphenyl)carbamoyloxy]methyl}pyrrolidinyl)-N-[(2-chlorophenyl)methyl]carboxamide] it is 185 nM.
Turning to `CCc1ccc(NC(=O)OC[C@@H]2C[C@@H](N)CN2C(=O)NCc2ccccc2Cl)cc1` [((5S,3R)-3-amino-5-{[N-(4-ethylphenyl)carbamoyloxy]methyl}pyrrolidinyl)-N-[(2-chlorophenyl)methyl]carboxamide], the IC50 stood at 1440 nM.
The figure for `CCc1ccc(NC(=O)N(CCNC(=O)OC(C)(C)C)CC2(C(=O)NCc3ccccc3Cl)CCN(C(=O)CNC(=O)OC(C)(C)C)CC2)cc1` [(tert-butoxy)-N-(2-{N-[(1-{2-[(tert-butoxy)carbonylamino]acetyl}-4-{N-[(2-chlorophenyl)methyl]carbamoyl}(4-piperidyl))methyl][(4-ethylphenyl)amino]carbonylamino}ethyl)carboxamide] is 19500 nM; for `CCc1ccc(NC(=O)OCC2(C(=O)NCc3ccccc3Br)CCN(C(=O)CN(C)C(=O)OC(C)(C)C)CC2)cc1` [(tert-butoxy)-N-[2-(4-{N-[(2-bromophenyl)methyl]carbamoyl}-4-{[N-(4-ethylphenyl)carbamoyloxy]methyl}piperidyl)-2-oxoethyl]-N-methylcarboxamide] it is 2860 nM.
On to `CCc1ccc(NC(=O)OCC2(C(=O)NCc3ccccc3Cl)CCN(C(=O)C(CO)NC(=O)OC(C)(C)C)CC2)cc1` (centres unmarked) [(tert-butoxy)-N-[2-(4-{N-[(2-chlorophenyl)methyl]carbamoyl}-4-{[N-(4-ethylphenyl)carbamoyloxy]methyl}piperidyl)-1-(hydroxymethyl)-2-oxoethyl]carboxamide], for which the IC50 is 661 nM.
The figure for `CCc1ccc(NC(=O)OCC2(C(=O)NCc3ccccc3Cl)CCN(C(=O)C(C)N(C)C(=O)OC(C)(C)C)CC2)cc1` (centres unmarked) [(tert-butoxy)-N-[2-(4-{N-[(2-chlorophenyl)methyl]carbamoyl}-4-{[N-(4-ethylphenyl)carbamoyloxy]methyl}piperidyl)-1-methyl-2-oxoethyl]-N-methylcarboxamide] is 6180 nM.
The figure for `CCc1ccc(NC(=O)OCC2(C(=O)NCc3ccccc3Cl)CCN(C(=O)CNC(=O)OC(C)(C)C)CC2)cc1` [(tert-butoxy)-N-[2-(4-{N-[(2-chlorophenyl)methyl]carbamoyl}-4-{[N-(4-ethylphenyl)carbamoyloxy]methyl}piperidyl)-2-oxoethyl]carboxamide] is 919 nM; for `CCc1ccc(NC(=O)OCC2(C(=O)NCc3ccccc3)CCN(C(=O)CNC(=O)OC(C)(C)C)CC2)cc1` [(tert-butoxy)-N-[2-(4-{[N-(4-ethylphenyl)carbamoyloxy]methyl}-4-[N-benzylcarbamoyl]piperidyl)-2-oxoethyl]carboxamide] it is 11100 nM.
Regarding `CCc1ccc(NC(=O)OCC2(C(=O)NCc3ccccc3F)CCN(C(=O)CNC(=O)OC(C)(C)C)CC2)cc1` [(tert-butoxy)-N-[2-(4-{[N-(4-ethylphenyl)carbamoyloxy]methyl}-4-{N-[(2-fluorophenyl)methyl]carbamoyl}piperidyl)-2-oxoethyl]carboxamide], the IC50 is 3770 nM.
In the case of `CCc1ccc(NC(=O)OCC2(C(=O)NCc3ccccc3C)CCN(C(=O)CNC(=O)OC(C)(C)C)CC2)cc1` [(tert-butoxy)-N-[2-(4-{[N-(4-ethylphenyl)carbamoyloxy]methyl}-4-{N-[(2-methylphenyl)methyl]carbamoyl}piperidyl)-2-oxoethyl]carboxamide], the half-inhibitory concentration (IC50) stood at 975 nM.
Consider `CCc1ccc(NC(=O)OCCN(CCN(C)C(=O)OC(C)(C)C)C(=O)NCc2ccccc2Cl)cc1` [(tert-butoxy)-N-[2-({[(2-chlorophenyl)methyl]amino}-N-{2-[N-(4-ethylphenyl)carbamoyloxy]ethyl}carbonylamino)ethyl]-N-methylcarboxamide], for which the half-inhibitory concentration (IC50) was found to be 18200 nM.
The same measure for `CCc1ccc(NC(=O)OCC2(C(=O)NCc3ccccc3Cl)CCN(C(=O)CCCNC(=O)OC(C)(C)C)CC2)cc1` [(tert-butoxy)-N-[4-(4-{N-[(2-chlorophenyl)methyl]carbamoyl}-4-{[N-(4-ethylphenyl)carbamoyloxy]methyl}piperidyl)-4-oxobutyl]carboxamide]: 481 nM.

The values above are taken from patent US8071625B2, “Certain chemical entities, compositions, and methods” (Cytokinetics, Inc., priority 2006, dated 2011).
